Tested on: MV-4-11 cells
Test: Gene expression microarray analysis (Affymetrix PrimeView) and GSEA
Format: cell-based, human
Set-up: RFU PODN (11730768_x_at) / Fold change /veh PODN (11730768_x_at) / RFU LINC00158 (11744669_a_at) / Fold change /veh LINC00158 (11744669_a_at) / RFU DUSP10 (11751237_a_at) / Fold change /veh DUSP10 (11751237_a_at) / RFU ID3 (11757404_x_at) / Fold change /veh ID3 (11757404_x_at) / RFU PLEKHG5 (11737974_s_at) / Fold change /veh PLEKHG5 (11737974_s_at) / RFU LRRC4B (11730491_at) / Fold change /veh LRRC4B (11730491_at) / RFU GIMAP4 (11747438_a_at) / Fold change /veh GIMAP4 (11747438_a_at) / RFU KRT8 (11758183_x_at) / Fold change /veh KRT8 (11758183_x_at) / RFU CNN1 (11734310_a_at) / Fold change /veh CNN1 (11734310_a_at) / RFU VPS37D (11726825_at) / Fold change /veh VPS37D (11726825_at) / RFU C10orf10 (11716522_x_at) / Fold change /veh C10orf10 (11716522_x_at) / RFU KIR2DL2 /// KIR2DL4 /// KIR2DL5A /// KIR2DL5B /// KIR2DS1 /// KIR2DS2 /// KIR2DS3 /// KIR2DS4 /// KIR3DL3 /// KIR3DL3 /// KIR3DS1 (11738374_at) / Fold change /veh KIR2DL2 /// KIR2DL4 /// KIR2DL5A /// KIR2DL5B /// KIR2DS1 /// KIR2DS2 /// KIR2DS3 /// KIR2DS4 /// KIR3DL3 /// KIR3DL3 /// KIR3DS1 (11738374_at) / RFU C1QL1 (11718748_at) / Fold change /veh C1QL1 (11718748_at) / RFU TMPRSS4 (11747572_a_at) / Fold change /veh TMPRSS4 (11747572_a_at) / RFU HAMP (11756126_x_at) / Fold change /veh HAMP (11756126_x_at) / RFU RNFT2 (11725882_a_at) / Fold change /veh RNFT2 (11725882_a_at) / RFU NR4A2 (11747474_a_at) / Fold change /veh NR4A2 (11747474_a_at) / RFU ABCC12 (11746883_a_at) / Fold change /veh ABCC12 (11746883_a_at) / RFU TMEM136 (11760407_x_at) / Fold change /veh TMEM136 (11760407_x_at) / RFU CLDN22 /// WWC2 (11732394_at) / Fold change /veh CLDN22 /// WWC2 (11732394_at) / RFU HLA-DPB1 (11760878_x_at) / Fold change /veh HLA-DPB1 (11760878_x_at) / RFU SPINT1 (11716480_a_at) / Fold change /veh SPINT1 (11716480_a_at) / RFU GAP43 (11754022_s_at) / Fold change /veh GAP43 (11754022_s_at) / RFU A4GNT (11735810_at) / Fold change /veh A4GNT (11735810_at) / RFU PRB3 (11715151_x_at) / Fold change /veh PRB3 (11715151_x_at) / RFU TUBB4B (11761932_at) / Fold change /veh TUBB4B (11761932_at) / RFU CAPN14 (11732068_a_at) / Fold change /veh CAPN14 (11732068_a_at) / RFU TMCC2 (11721928_a_at) / Fold change /veh TMCC2 (11721928_a_at) / RFU IRGQ (11745062_a_at) / Fold change /veh IRGQ (11745062_a_at) / RFU FAM174B (11720279_a_at) / Fold change /veh FAM174B (11720279_a_at) / RFU TMPRSS4 (11748680_a_at) / Fold change /veh TMPRSS4 (11748680_a_at) / RFU FAM212B (11763350_a_at) / Fold change /veh FAM212B (11763350_a_at) / RFU PLEKHG5 (11743358_a_at) / Fold change /veh PLEKHG5 (11743358_a_at) / RFU ZSCAN30 (11745921_a_at) / Fold change /veh ZSCAN30 (11745921_a_at) / RFU CMKLR1 (11741424_a_at) / Fold change /veh CMKLR1 (11741424_a_at) / RFU LOC101060620 /// MAPK8IP1 (11723275_at) / Fold change /veh LOC101060620 /// MAPK8IP1 (11723275_at) / RFU SPTSSB (11747773_x_at) / Fold change /veh SPTSSB (11747773_x_at) / RFU PRSS12 (11739890_at) / Fold change /veh PRSS12 (11739890_at) / RFU BIN1 (11741810_x_at) / Fold change /veh BIN1 (11741810_x_at) / RFU WNT11 (11732464_a_at) / Fold change /veh WNT11 (11732464_a_at) / RFU C10orf10 (11716521_a_at) / Fold change /veh C10orf10 (11716521_a_at) / RFU C5orf56 (11738089_at) / Fold change /veh C5orf56 (11738089_at) / RFU CYB561 (11721691_x_at) / Fold change /veh CYB561 (11721691_x_at) / RFU ANKRD19P (11752326_a_at) / Fold change /veh ANKRD19P (11752326_a_at) / RFU OR2T12 /// OR2T33 /// OR2T8 (11738714_s_at) / Fold change /veh OR2T12 /// OR2T33 /// OR2T8 (11738714_s_at) / RFU VCAN (11748164_a_at) / Fold change /veh VCAN (11748164_a_at) / RFU JSRP1 (11732532_at) / Fold change /veh JSRP1 (11732532_at) / RFU KRTAP10-11 (11738290_x_at) / Fold change /veh KRTAP10-11 (11738290_x_at) / RFU MYO3A (11730013_a_at) / Fold change /veh MYO3A (11730013_a_at) / RFU EBF3 (11725865_a_at) / Fold change /veh EBF3 (11725865_a_at) / RFU CAMK2N1 (11719241_x_at) / Fold change /veh CAMK2N1 (11719241_x_at) / RFU C5orf56 (11738088_a_at) / Fold change /veh C5orf56 (11738088_a_at) / RFU OLFML3 (11715873_a_at) / Fold change /veh OLFML3 (11715873_a_at) / RFU LOC100653217 /// NTM (11731650_a_at) / Fold change /veh LOC100653217 /// NTM (11731650_a_at) / RFU MAPK11 (11762145_a_at) / Fold change /veh MAPK11 (11762145_a_at) / RFU FIZ1 (11724087_x_at) / Fold change /veh FIZ1 (11724087_x_at) / RFU OASL (11726364_x_at) / Fold change /veh OASL (11726364_x_at) / RFU SOX15 (11748057_x_at) / Fold change /veh SOX15 (11748057_x_at) / RFU CD79A (11719716_a_at) / Fold change /veh CD79A (11719716_a_at) / RFU HIST1H1D (11736915_at) / Fold change /veh HIST1H1D (11736915_at) / RFU CASKIN2 (11723855_a_at) / Fold change /veh CASKIN2 (11723855_a_at) / RFU LOC730098 (11760151_x_at) / Fold change /veh LOC730098 (11760151_x_at) / RFU OR4N2 (11742367_at) / Fold change /veh OR4N2 (11742367_at) / RFU PRRT2 (11749266_a_at) / Fold change /veh PRRT2 (11749266_a_at) / RFU SNX32 (11753110_a_at) / Fold change /veh SNX32 (11753110_a_at) / RFU CDHR5 (11726645_a_at) / Fold change /veh CDHR5 (11726645_a_at) / RFU RCAN1 (11760418_a_at) / Fold change /veh RCAN1 (11760418_a_at) / RFU FAM167A (11723789_a_at) / Fold change /veh FAM167A (11723789_a_at) / RFU FAM26E (11764081_at) / Fold change /veh FAM26E (11764081_at) / RFU ISYNA1 (11749810_s_at) / Fold change /veh ISYNA1 (11749810_s_at) / RFU ACY1 (11761880_at) / Fold change /veh ACY1 (11761880_at) / RFU 11764098_at / Fold change /veh 11764098_at / RFU SAMD14 (11745864_x_at) / Fold change /veh SAMD14 (11745864_x_at) / RFU NPB (11741838_a_at) / Fold change /veh NPB (11741838_a_at) / RFU TMPRSS6 (11731388_a_at) / Fold change /veh TMPRSS6 (11731388_a_at) / RFU KRTAP10-2 (11738614_at) / Fold change /veh KRTAP10-2 (11738614_at) / RFU ARHGAP8 /// PRR5-ARHGAP8 (11727945_x_at) / Fold change /veh ARHGAP8 /// PRR5-ARHGAP8 (11727945_x_at) / RFU KRTAP5-7 /// NADSYN1 (11734609_at) / Fold change /veh KRTAP5-7 /// NADSYN1 (11734609_at) / RFU RASL12 (11751679_a_at) / Fold change /veh RASL12 (11751679_a_at) / RFU CDKN2B (11736163_a_at) / Fold change /veh CDKN2B (11736163_a_at) / RFU PRF1 (11729649_at) / Fold change /veh PRF1 (11729649_at) / RFU, ZNF638 /// ZNF638-IT1 / Fold change vs veh, ZNF638 /// ZNF638-IT1 / RFU, PANK3 / Fold change vs veh, PANK3 / RFU, SH3YL1 / Fold change vs veh, SH3YL1 / RFU, ZEB2 / Fold change vs veh, ZEB2 / RFU, NRIP1 / Fold change vs veh, NRIP1 / RFU, PTTG1IP / Fold change vs veh, PTTG1IP / RFU, CAPN2 / Fold change vs veh, CAPN2 / RFU, MED14 / Fold change vs veh, MED14 / RFU, SNORA58 / Fold change vs veh, SNORA58 / RFU, C1orf63 / Fold change vs veh, C1orf63 / RFU, LRRFIP1 / Fold change vs veh, LRRFIP1 / RFU, NDUFAF7 / Fold change vs veh, NDUFAF7 / RFU, SLC12A2 / Fold change vs veh, SLC12A2 / RFU, IBTK / Fold change vs veh, IBTK / RFU, ESF1 / Fold change vs veh, ESF1 / Fold change vs veh, TMEM50B / RFU, TAOK1 / Fold change vs veh, TAOK1 / RFU, ACBD3 / Fold change vs veh, ACBD3 / RFU, TMA16 / Fold change vs veh, TMA16 / RFU, RWDD3 / Fold change vs veh, RWDD3 / RFU, BCAT1 / Fold change vs veh, BCAT1 / RFU, EDEM3 / Fold change vs veh, EDEM3 / RFU, TMEM33 / Fold change vs veh, TMEM33 / RFU, WDR75 / Fold change vs veh, WDR75 / RFU, AHCTF1 / Fold change vs veh, AHCTF1 / RFU, TFRC / Fold change vs veh, TFRC / RFU, ZDHHC17 / Fold change vs veh, ZDHHC17 / RFU, NOM1 / Fold change vs veh, NOM1 / RFU, ARL8B / Fold change vs veh, ARL8B / RFU, ZBTB11 / Fold change vs veh, ZBTB11 / RFU, TAMM41 / Fold change vs veh, TAMM41 / RFU, KIAA1704 /// LOC100996395 / Fold change vs veh, KIAA1704 /// LOC100996395 / RFU, ING1 / Fold change vs veh, ING1 / RFU, TRMT61B / Fold change vs veh, TRMT61B / RFU, FUBP3 / Fold change vs veh, FUBP3 / RFU, TP53 / Fold change vs veh, TP53 / RFU, TNKS2 / Fold change vs veh, TNKS2 / RFU, ZFP14 / Fold change vs veh, ZFP14 / RFU, ACTR2 / Fold change vs veh, ACTR2 / RFU, PPP3R1 / Fold change vs veh, PPP3R1 / RFU, PIK3R1 / Fold change vs veh, PIK3R1 / RFU, HNRNPA1 / Fold change vs veh, HNRNPA1 / RFU, RNF170 / Fold change vs veh, RNF170 / RFU, ZNF28 / Fold change vs veh, ZNF28 / RFU, RNGTT / Fold change vs veh, RNGTT / RFU, OGT / Fold change vs veh, OGT / RFU, BRD1 / Fold change vs veh, BRD1 / RFU, MARS / Fold change vs veh, MARS / RFU, ZNF655 / Fold change vs veh, ZNF655 / RFU, FAHD1 / Fold change vs veh, FAHD1 / RFU, BDP1 / Fold change vs veh, BDP1 / RFU, LRRCC1 / Fold change vs veh, LRRCC1 / RFU, ARID1A / Fold change vs veh, ARID1A / RFU, ZNF146 / Fold change vs veh, ZNF146 / RFU, ZNF330 / Fold change vs veh, ZNF330 / RFU, GPN3 / Fold change vs veh, GPN3 / RFU, C9orf123 / Fold change vs veh, C9orf123 / RFU, N4BP2L2 / Fold change vs veh, N4BP2L2 / RFU, ARFIP1 / Fold change vs veh, ARFIP1 / RFU, FAM179B / Fold change vs veh, FAM179B / RFU, BCL10 / Fold change vs veh, BCL10 / RFU, UHRF1BP1L / Fold change vs veh, UHRF1BP1L / RFU, BET1 / Fold change vs veh, BET1 / RFU, CNOT2 / Fold change vs veh, CNOT2 / RFU, ZNF268 / Fold change vs veh, ZNF268 / Fold change vs veh, ZNF507 / RFU, DGCR2 / Fold change vs veh, DGCR2 / RFU, WDSUB1 / Fold change vs veh, WDSUB1 / Fold change vs veh, HSP90B1 /// MIR3652 / RFU, ADSS / Fold change vs veh, ADSS / RFU, GK / Fold change vs veh, GK / RFU, ZNF148 / Fold change vs veh, ZNF148 / RFU, TAF9 / Fold change vs veh, TAF9 / RFU, SLC1A5 / Fold change vs veh, SLC1A5 / RFU, SLMO2 / Fold change vs veh, SLMO2 / RFU, ABCC4 / Fold change vs veh, ABCC4 / RFU, LOC101060439 /// RAP1B / Fold change vs veh, LOC101060439 /// RAP1B / RFU, RFX7 / Fold change vs veh, RFX7 / RFU, GTPBP10 / Fold change vs veh, GTPBP10 / RFU, CNEP1R1 / Fold change vs veh, CNEP1R1 / RFU, BIVM-ERCC5 /// ERCC5 / Fold change vs veh, BIVM-ERCC5 /// ERCC5 / RFU, ILF3 / Fold change vs veh, ILF3 / RFU 11762660_at / Fold change /veh 11762660_at / RFU VCAN (11757783_s_at) / Fold change /veh VCAN (11757783_s_at) / RFU DDX43 (11728927_at) / Fold change /veh DDX43 (11728927_at) / RFU KRT8 (11758188_x_at) / Fold change /veh KRT8 (11758188_x_at) / RFU NKD1 (11759106_at) / Fold change /veh NKD1 (11759106_at) / RFU SRD5A1 (11742802_a_at) / Fold change /veh SRD5A1 (11742802_a_at) / RFU TPSAB1 /// TPSB2 (11721975_s_at) / Fold change /veh TPSAB1 /// TPSB2 (11721975_s_at) / RFU GSTM3 (11746129_a_at) / Fold change /veh GSTM3 (11746129_a_at) / RFU IL23R (11737362_x_at) / Fold change /veh IL23R (11737362_x_at) / RFU TMEM51 (11727254_a_at) / Fold change /veh TMEM51 (11727254_a_at) / RFU PIWIL2 (11732686_x_at) / Fold change /veh PIWIL2 (11732686_x_at) / RFU ORM1 (11744905_x_at) / Fold change /veh ORM1 (11744905_x_at) / RFU CCDC152 (11743942_at) / Fold change /veh CCDC152 (11743942_at) / RFU ECM1 (11717891_a_at) / Fold change /veh ECM1 (11717891_a_at) / RFU IL23R (11748794_a_at) / Fold change /veh IL23R (11748794_a_at) / RFU TNFAIP8L3 (11732012_x_at) / Fold change /veh TNFAIP8L3 (11732012_x_at) / RFU MBOAT4 (11741988_at) / Fold change /veh MBOAT4 (11741988_at) / RFU 11764193_at / Fold change /veh 11764193_at / RFU TMEM53 (11763286_at) / Fold change /veh TMEM53 (11763286_at) / RFU MAGEB2 (11727129_at) / Fold change /veh MAGEB2 (11727129_at) / RFU TMEM200A (11744735_a_at) / Fold change /veh TMEM200A (11744735_a_at) / RFU CCDC152 (11751479_a_at) / Fold change /veh CCDC152 (11751479_a_at) / RFU FAM211A (11726209_a_at) / Fold change /veh FAM211A (11726209_a_at) / RFU RGS16 (11746705_a_at) / Fold change /veh RGS16 (11746705_a_at) / RFU VCAN (11755009_s_at) / Fold change /veh VCAN (11755009_s_at) / RFU RHOB (11743442_s_at) / Fold change /veh RHOB (11743442_s_at) / RFU RGS16 (11720943_a_at) / Fold change /veh RGS16 (11720943_a_at) / RFU RGS16 (11720944_at) / Fold change /veh RGS16 (11720944_at) / RFU, VPS4B / Fold change vs veh, VPS4B / RFU, CREB1 / Fold change vs veh, CREB1 / RFU, DNAJC13 / Fold change vs veh, DNAJC13 / RFU, GNAQ / Fold change vs veh, GNAQ / RFU, CDK5R1 / Fold change vs veh, CDK5R1 / RFU, ZRANB3 / Fold change vs veh, ZRANB3 / RFU, CUL4A / Fold change vs veh, CUL4A / RFU, CCNY / Fold change vs veh, CCNY / RFU, UFL1 / Fold change vs veh, UFL1 / RFU, COG3 / Fold change vs veh, COG3 / RFU, DIAPH2 / Fold change vs veh, DIAPH2 / RFU, SKA2 / Fold change vs veh, SKA2 / RFU, AFF3 / Fold change vs veh, AFF3 / RFU, LMF1 / Fold change vs veh, LMF1 / RFU, IPO11 / Fold change vs veh, IPO11 / RFU, DFFB / Fold change vs veh, DFFB / RFU, FOXP1 / Fold change vs veh, FOXP1 / RFU, CARD8 / Fold change vs veh, CARD8 / RFU, STRN3 / Fold change vs veh, STRN3 / RFU, ADK / Fold change vs veh, ADK / RFU, RASSF2 / Fold change vs veh, RASSF2 / RFU, WIPF1 / Fold change vs veh, WIPF1 / RFU, LARP1B / Fold change vs veh, LARP1B / RFU, RASA1 / Fold change vs veh, RASA1 / RFU, RB1 / Fold change vs veh, RB1 / RFU, PPFIA1 / Fold change vs veh, PPFIA1 / RFU, MAT2A / Fold change vs veh, MAT2A / RFU, CCT5 / Fold change vs veh, CCT5 / RFU, WDR92 / Fold change vs veh, WDR92 / RFU, CUX1 / Fold change vs veh, CUX1 / RFU, TTC7A / Fold change vs veh, TTC7A / RFU, TMEM135 / Fold change vs veh, TMEM135 / RFU, DEPTOR / Fold change vs veh, DEPTOR / RFU, CPM / Fold change vs veh, CPM / RFU, DNAJB6 / Fold change vs veh, DNAJB6 / RFU, CACNA2D3 / Fold change vs veh, CACNA2D3 / RFU, DTX4 / Fold change vs veh, DTX4 / RFU, TFCP2 / Fold change vs veh, TFCP2 / RFU, GMCL1 /// GMCL1P1 / Fold change vs veh, GMCL1 /// GMCL1P1 / RFU, AEBP2 / Fold change vs veh, AEBP2 / RFU, SNHG1 /// SNORD22 /// SNORD25 /// SNORD26 /// SNORD27 /// SNORD28 /// SNORD29 /// SNORD31 / Fold change vs veh, SNHG1 /// SNORD22 /// SNORD25 /// SNORD26 /// SNORD27 /// SNORD28 /// SNORD29 /// SNORD31 / Fold change (Aza/veh), C12orf56 (ProbeSet 11735607_a_at) / Fold change (ACY-1035/veh), C12orf56 (ProbeSet 11735607_a_at) / Fold change (Aza/veh), FGFR1OP (ProbeSet 11751329_s_at) / Fold change (ACY-1035/veh), FGFR1OP (ProbeSet 11751329_s_at) / Fold change (Aza/veh), VPS36 (ProbeSet 11739960_a_at) / Fold change (ACY-1035/veh), VPS36 (ProbeSet 11739960_a_at) / RFU SYPL1 (11715823_x_at) / Fold change /veh SYPL1 (11715823_x_at) / RFU IGFBP7 (11715501_s_at) / Fold change /veh IGFBP7 (11715501_s_at) / RFU REEP3 (11722064_at) / Fold change /veh REEP3 (11722064_at) / RFU IGLL1 (11728026_x_at) / Fold change /veh IGLL1 (11728026_x_at): dose or concentration left out as unconfirmed
Settings: MV-4-11 cells, 48 hours

Nc1ccc(-c2cccs2)cc1NC(=O)c1ccc2c(c1)cc(C1CC1)n2CCN1CCOCC1 [ACY-1035]
RFU C5orf56 (11738088_a_at): 66.78 RFU
